Reference: US4820723A, “Disubstituted tetrazole leukotriene antagonists and methods for their use thereas” (Eli Lilly and Company, priority 1987, dated 1989)

How the values were obtained:
[1] = test system: LTD4 evoked ileal contractions; assay: LTD4 antagonism: inhibition of LTD4 evoked contractions of isolated guinea pig ileum; set-up: species or system Male, Hartley guinea pigs; conditions: 5 min exposure to drug, 50% inhibition of LTD4 responses, 37° C.
Method: Male, Hartley guinea pigs weighing 200-450 grams were killed by decapitation. A section of terminal ileum was removed, the lumen cleaned, and the tissue divided into 2.5 cm segments. The ilea were mounted in 10 ml tissue baths containing Krebs-bicarbonate solution of the following composition in mmoles/liter: KCl, 4.6; CaCl2 ·2H2 O, 1.2; KH2 PO4, 1.2; MgSO4 ·7H2 O, 1.2; NaCl, 118.2; NaHCO3, 24.8; and dextrose, 10.0. The bath fluid was maintained at 37° C. and aerated with 95 percent oxygen and 5 percent CO2. In addition, the buffer contained 1×10^-6 M atropine to reduce ileal spontaneous activity. Isometric measurements were made with a Grass FT03C force-displacement transducer and recorded on a Grass polygraph as change in grams of force. A passive force of 0.5 g. was applied to the tissues. After an appropriate equilibration period, single submaximal control responses to pure LTD4 were obtained. Following a five minute exposure of the ileum to an experimental drug, the control concentration of LTD4 was added to the tissue bath. The response of the ileum to LTD4 in the presence of the drug was compared to the response in the absence of the drug. Various degrees of LTD4 antagonism were obtained using 2-4 different concentrations of an experimental compound on a single ileum.
Percent inhibition of LTD4 evoked ileal contractions

[2] = test system: pressor response to leukotriene D4; assay: decrease of LTD4 pressor response in pithed rats; format: in vivo, Adult male Sprague-Dawley rats; conditions: Rattus norvegicus, iv, 0.25 h, 15 minutes prior to leukotriene D4 challenge (10 μg/kg, i.v.); dose to decrease pressor response by 50%
Method: A further measure of the final product's activity is their ability to decrease the pressor response in pithed rats that are challenged by LTD4. This activity is measured by the following standard procedure
Adult male Sprague-Dawley rats, weighting approximately 300-500 grams, are anesthetized with pentobarbital sodium (60 mg/kg, i.p.). The trachea is cannulated and the rats are ventilated with room air delivered from a rodent respirator (Harvard, model 680; tidal volume of 1 ml/100 grams body weight, 60 cycles/minute). Rats are pithed by passing a steel rod through the right orbit and down the entire length of the spinal column. The rod is left in position for the duration of the experiment. Pulsatile arterial blood pressure is measured from a cannulated carotid artery using a Stathamtransducer (P231D). Mean arterial blood pressure is calculated as diastolic pressure plus 1/3 pulse pressure. Drug solutions are administered i.v. through a catheter placed in a jugular vein. Arterial blood pressure is recorded on a multichannel oscillograph (Beckman, model R511A).
Groups of pithed rats, usually 4-6/group, are pretreated i.v. with a dose of test compound or vehicle (control experiments) 15 minutes prior to leukotriene D4 challenge (10 μg/kg, i.v.). Usually 3-4 doses of the test compound are evaluated in a given study. Blood pressure responses to leukotriene D4 in control and drug-treated pithed rats are then compared and an ED50 dose of antagonist is estimated. ED50 (95% confidence interval) is the calculated dose of antagonist (mg/kg, i.v.) required to decrease the pressor response to leukotriene D4 by 50%.
The ED50 values of selected final products of Formula I are set forth below in Table 2.

Structure (SMILES)	-log IC50 [1]	ED50 [2] [mg/kg]
CCCc1c(OCCCCc2nnn(CCCCCCc3nn[nH]n3)n2)ccc(C(C)=O)c1O [Example 26, 5-4-(4-Acetyl-3-hydroxy-2-(n-propyl)phenoxybutyl]-2-[6-(1H-tetrazol-5-yl)hexyl]-2H-tetrazole]	7.63	18.6
CCCc1c(OCCCCc2nnnn2CCCCC(=O)O)ccc(C(C)=O)c1O [Example 24]	6.14	
CCCc1c(OCCCc2nnnn2CCCCC(=O)O)ccc(C(C)=O)c1O [Example 61, 5-[3-(4-Acetyl-3-hydroxy-2-(n-propyl)phenoxy)propyl]-1H-tetrazole-1-[5-pentanoic acid]]	5.20	
CCCc1c(OCCCCc2nnn(CCCCCC(=O)O)n2)ccc(C(C)=O)c1O [Example 29]	7.35	8.7
CCCc1c(Oc2ccc(-c3nnn(CCCc4nn[nH]n4)n3)cc2)ccc(C(C)=O)c1O [Example 59]	7.50	
CCCc1c(OCCCCc2nnn(Cc3cccc(C(=O)O)c3)n2)ccc(C(C)=O)c1O [Example 35, 5-[4-(4-Acetyl-3-hydroxy-2-(n-propyl)phenoxy)butyl]-2H-tetrazole-2-(α-methylene-m-benzoic acid)]	7.15	27.5
CCCc1c(OCCCc2nnn(CCCCC(=O)O)n2)ccc(C(C)=O)c1O [Example 62, 5-[3-(4-Acetyl-3-hydroxy-2-propylphenoxy)-propyl]-2H-tetrazol-2-(5-pentanoic acid)]	6.47	
CCCc1c(OCCCCCc2nnn(CCCCc3nnn[nH]3)n2)ccc(C(C)=O)c1O [Example 40, 5-[5-(4-Acetyl-3-hydroxy-2-(n-propyl)phenoxy)pentyl]-2-[4-(1H-tetrazol-5-yl)butyl]-2H-tetrazole]	6.83	
CCCc1c(OCCCCc2nnn(CCCC(=O)O)n2)ccc(C(C)=O)c1O [Example 46, 5-[4-(4-Acetyl-3-hydroxy-2-propylphenoxy)butyl]-2H-tetrazol-2-(4-butyric acid)]	7.12	8.1
CCCc1c(OCCCCn2nnc(CCCC(=O)O)n2)ccc(C(C)=O)c1O [Example 64, 2-[4-(4-Acetyl-3-hydroxy-2-(n-propyl)phenoxy)-butyl]-2H-tetrazole-5-butanoic acid]	7.51	
CCCc1c(OCCCCc2nnnn2CCCC(=O)O)ccc(C(C)=O)c1O [Example 47, 5-[4-(4-Acetyl-3-hydroxy-2-(n-propyl)phenoxy)butyl]-1-[4-butanoic acid]-1H-tetrazole]	5.89	> 30
CCCc1c(OCCCc2nnn(CC(=O)O)n2)ccc(C(C)=O)c1O [C]	5.82	
CCCc1c(OCCCCCc2nnn(CCCC(=O)O)n2)ccc(C(C)=O)c1O [Example 39, 5-[5-(Acetyl-3-hydroxy-2-(n-propyl)phenoxy)pentyl]-2-[4-butanoic acid]-2H-tetrazole]	6.37	25.8
CCCc1c(OCCCCCCc2nnn(CC(=O)O)n2)ccc(C(C)=O)c1O [E]	6.83	> 30
CCCc1c(OCCCCCCc2nnn(CCCC(=O)O)n2)ccc(C(C)=O)c1O [Example 51, 5-[6-(4-Acetyl-3-hydroxy-2-(n-propyl)phenoxy)hexyl]-2H-tetrazole-2-[4-butanoic acid]]	6.75	18.3
CCCc1c(OCCCCc2nnnn2Cc2ccc(C(=O)O)cc2)ccc(C(C)=O)c1O [Example 33, 5-[4-(4-Acetyl-3-hydroxy-2-(n-propyl)phenoxy)butyl]-1H-tetrazole-1-[para-methylenebenzoic acid]]	6.30	
CCCc1c(OCCCCCCc2nnnn2CC(=O)O)ccc(C(C)=O)c1O [F]	6.59	27.1
CCCc1c(OCCCCc2nnn(CCCCc3nnn[nH]3)n2)ccc(C(C)=O)c1O [Example 23A, 5-[4-(4-Acetyl-3-hydroxy-2-(n-propyl)phenoxy)butyl]-2[4-(1H-tetrazol-5-yl)butyl]-2H-tetrazole]	7.65	7.5

Structure (SMILES)	-log IC50 [1]	ED50 [2] [mg/kg]
CCCc1c(OCCCc2nnnn2CC(=O)O)ccc(C(C)=O)c1O [D]	5.95	
CCCc1c(OCCCCc2nnn(CCCCCCC(=O)O)n2)ccc(C(C)=O)c1O [Example 27, 5-[4-(4-Acetyl-3-hydroxy-2-propylphenoxy)butyl]-2H-tetrazole-2-(7-heptanoicacid)]	7.05	12.7
CCCc1c(OCCCCc2nnnn2CCC(=O)O)ccc(C(C)=O)c1O [Example 45, 5-[4-(4-Acetyl-3-hydroxy-2-(n-propyl)phenoxy)butyl]-1H-tetrazole-1-[3-propionic acid]]	5.83	> 30
CCCc1c(OCCCCn2nnnc2CCCC(=O)O)ccc(C(C)=O)c1O [Example 65, 1-4-(4-acetyl-3-hydroxy-2-(n-propylphenoxy)butyl]-1H-tetrazole-5-butanoic acid]	6.18	
CCCc1c(OCCCCc2nnnn2CC(=O)O)ccc(C(C)=O)c1O [B]	5.88	> 30
CCCc1c(OCCCCc2nnn(Cc3cccc(-c4nnn[nH]4)c3)n2)ccc(C(C)=O)c1O [Example 34, 5-[4-(4-Acetyl-3-hydroxy-2-(n-propyl)phenoxy)butyl]-2-[meta-(1H-tetrazol-5-yl)benzyl]-2H-tetrazole]	7.52	25.5
CCCc1c(OCCCCCc2nnn(CC(=O)O)n2)ccc(C(C)=O)c1O [G]	6.3	> 30
CCCc1c(OCCCCCCc2nnnn2CCCC(=O)O)ccc(C(C)=O)c1O [Example 50]	6.54	17.3
CCCc1c(OCCCCc2nnn(CCCCCc3nnn[nH]3)n2)ccc(C(C)=O)c1O [Example 28, 5-[4-(4-Acetyl-3-hydroxy-2-(n-propyl)phenoxy)butyl]-2-[5-(1H-tetrazol-5-yl)pentyl]-2H-tetrazole]	7.57	9.7
CCCc1c(OCCCCn2nnc(Cc3ccc(C(=O)O)cc3)n2)ccc(C(C)=O)c1O [Example 67, 4-[[2-[4-(4-Acetyl-3-hydroxy-2-(n-propyl)phenoxy)butyl]-2H-tetrazol-5-yl]methyl]benzoic acid]	7.25	
CCCc1c(OCCCCc2nnn(CCCCC(=O)O)n2)ccc(C(C)=O)c1O [Example 48, 5-[4-(4-Acetyl-3-hydroxy-2-propylphenoxy)butyl]-2H-tetrazol-2-(5-pentanoic acid)]	7.15	9.9
CCCc1c(OCCCCc2nnn(Cc3ccc(-c4nn[nH]n4)cc3)n2)ccc(C(C)=O)c1O [Example 30]	7.54	16.8
CCCc1c(OCCCCCc2nnn(CCCc3nn[nH]n3)n2)ccc(C(C)=O)c1O [Example 38]	6.62	
CCCc1c(OCCCCc2nnn(CCCc3nn[nH]n3)n2)ccc(C(C)=O)c1O [Example 25]	7.42	8.4
CCCc1c(OCCCCn2nnnc2Cc2ccc(C(=O)O)cc2)ccc(C(C)=O)c1O [Example 68]	6.66	
CCCc1c(OCCCCc2nnn(CCC(=O)O)n2)ccc(C(C)=O)c1O [Example 44, 5-[4-(4-Acetyl-3-hydroxy-2-propylphenoxy)butyl]-2H-tetrazol-2-(3-propionic acid)]	6.81	10.6
CCCc1c(OCCCCc2nnn(CC(=O)O)n2)ccc(C(C)=O)c1O [A]	6.68	> 30
CCCc1c(Oc2ccc(-c3nnn(CCCC(=O)O)n3)cc2)ccc(C(C)=O)c1O [Example 60, 5-[para-(4-Acetyl-3-hydroxy-2-(n-propyl)phenoxy)phenyl]-2H-tetrazole-2-[4-butanoic acid]]	7.26	
